The results in this text go back to patent US9212182B2, “Bicyclic sulfonamide compounds as sodium channel inhibitors” (AMGEN INC., priority 2013, dated 2015).

The assay addresses Nav 1.7 (Homo sapiens (Human), UniProt Q15858). Description: in-vitro Nav 1.7 PX (IC50). It is filed as cell-based.
Setting [1] is: in-vitro Nav 1.7 PX data (PatchXpress).

pIC50: −log10 of the molar value. Where two headings read alike, the source gives them in different places.

Nav 1.7, sequence (Q15858 whole entry): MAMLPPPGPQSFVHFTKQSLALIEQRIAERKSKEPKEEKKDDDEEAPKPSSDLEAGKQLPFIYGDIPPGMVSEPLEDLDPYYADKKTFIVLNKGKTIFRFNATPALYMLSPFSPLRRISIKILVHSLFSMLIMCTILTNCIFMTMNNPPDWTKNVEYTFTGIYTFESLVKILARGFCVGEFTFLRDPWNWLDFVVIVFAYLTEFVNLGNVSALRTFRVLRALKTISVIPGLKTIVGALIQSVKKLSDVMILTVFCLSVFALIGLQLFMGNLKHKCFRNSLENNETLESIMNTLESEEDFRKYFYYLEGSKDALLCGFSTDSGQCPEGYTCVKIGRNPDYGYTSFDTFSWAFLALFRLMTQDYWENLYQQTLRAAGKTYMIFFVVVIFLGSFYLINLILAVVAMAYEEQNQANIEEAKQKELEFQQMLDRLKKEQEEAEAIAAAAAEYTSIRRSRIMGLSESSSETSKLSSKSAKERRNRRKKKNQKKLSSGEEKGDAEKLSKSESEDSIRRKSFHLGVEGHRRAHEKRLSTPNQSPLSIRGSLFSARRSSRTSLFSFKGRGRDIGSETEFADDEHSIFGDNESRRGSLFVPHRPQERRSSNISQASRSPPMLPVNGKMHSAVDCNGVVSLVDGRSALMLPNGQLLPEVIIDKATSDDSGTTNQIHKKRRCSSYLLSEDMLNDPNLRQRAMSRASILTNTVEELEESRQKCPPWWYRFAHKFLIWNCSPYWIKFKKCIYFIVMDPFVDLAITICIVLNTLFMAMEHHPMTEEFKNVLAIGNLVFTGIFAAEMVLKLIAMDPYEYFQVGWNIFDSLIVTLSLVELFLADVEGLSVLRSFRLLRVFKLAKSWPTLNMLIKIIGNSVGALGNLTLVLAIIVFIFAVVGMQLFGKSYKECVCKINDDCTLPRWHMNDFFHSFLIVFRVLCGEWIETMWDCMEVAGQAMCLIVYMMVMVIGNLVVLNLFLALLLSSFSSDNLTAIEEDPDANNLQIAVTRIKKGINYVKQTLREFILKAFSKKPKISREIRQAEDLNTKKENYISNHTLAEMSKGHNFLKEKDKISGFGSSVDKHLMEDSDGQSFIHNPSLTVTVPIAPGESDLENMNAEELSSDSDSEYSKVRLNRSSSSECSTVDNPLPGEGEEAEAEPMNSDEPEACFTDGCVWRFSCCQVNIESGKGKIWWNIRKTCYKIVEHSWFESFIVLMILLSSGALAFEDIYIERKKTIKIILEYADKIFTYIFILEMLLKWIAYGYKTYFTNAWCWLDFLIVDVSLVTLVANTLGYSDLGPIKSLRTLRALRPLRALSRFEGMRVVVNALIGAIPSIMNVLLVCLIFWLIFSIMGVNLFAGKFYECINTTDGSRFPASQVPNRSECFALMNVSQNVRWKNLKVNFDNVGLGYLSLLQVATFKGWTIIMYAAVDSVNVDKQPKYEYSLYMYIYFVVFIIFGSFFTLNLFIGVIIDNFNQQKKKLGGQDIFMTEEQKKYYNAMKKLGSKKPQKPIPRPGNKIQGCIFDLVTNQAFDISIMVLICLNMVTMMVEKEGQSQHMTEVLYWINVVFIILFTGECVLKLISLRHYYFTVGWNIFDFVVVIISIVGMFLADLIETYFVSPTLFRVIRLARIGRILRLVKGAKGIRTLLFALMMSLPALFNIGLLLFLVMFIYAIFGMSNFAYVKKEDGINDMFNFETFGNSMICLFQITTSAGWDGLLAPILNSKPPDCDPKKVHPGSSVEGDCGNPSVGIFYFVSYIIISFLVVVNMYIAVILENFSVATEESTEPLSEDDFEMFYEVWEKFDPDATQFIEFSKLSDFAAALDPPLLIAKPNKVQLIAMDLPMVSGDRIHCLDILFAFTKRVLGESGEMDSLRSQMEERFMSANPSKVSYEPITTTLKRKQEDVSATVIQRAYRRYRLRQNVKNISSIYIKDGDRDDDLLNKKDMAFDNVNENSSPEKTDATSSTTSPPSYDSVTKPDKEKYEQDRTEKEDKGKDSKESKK

The pIC50 is the negative decadic logarithm of the IC50, by convention in mol/L. For `COc1cc(-c2cc(OC)c(-n3c(=O)ccc4cc(S(=O)(=O)Nc5ccon5)ccc43)cc2F)ccn1` [Example 739, 1-(5-fluoro-2-methoxy-4-(2-methoxy-4-pyridinyl)phenyl)-N-3-isoxazolyl-2-oxo-1,2-dihydro-6-quinolinesulfonamide], the pIC50 (in-vitro Nav 1.7 PX data) was 6.65.

As for `COc1cc(-c2ccc(Cl)c(C)c2)ccc1-n1c(=O)cnc2cc(S(=O)(=O)Nc3ncccn3)ccc21` [Example 1199, 1-(4′-chloro-3-methoxy-3′-methyl-4-biphenylyl)-2-oxo-N-2-pyrimidinyl-1,2-dihydro-6-quinoxalinesulfonamide], the pIC50 was 6.90.

`COc1cc(-c2ccc(-n3c(=O)ccc4cc(S(=O)(=O)Nc5cccnn5)ccc43)c(OC)c2)ccc1Cl` [Example 1038, 1-(4′-chloro-3,3′-dimethoxy-4-biphenylyl)-2-oxo-N-3-pyridazinyl-1,2-dihydro-6-quinolinesulfonamide] showed a pIC50 under setting [1] of 7.24.

`COc1cc(-c2cc(F)c(F)cc2F)c(F)cc1-n1c(=O)ccc2cc(S(=O)(=O)Nc3ccon3)ccc21` (atropisomer, axis not shown; (P)) [Example 516, (P)—N-3-isoxazolyl-2-oxo-1-(2,2′,4′,5′-tetrafluoro-5-methoxy-4-biphenylyl)-1,2-dihydro-6-quinolinesulfonamide] gave a pIC50 (in-vitro PatchXpress (PX)) of less than 5.00.

The compound `COc1cc(-c2ccc(C)c(Cl)c2)ccc1-n1c(=O)ccc2cc(S(=O)(=O)Nc3ccon3)ccc21` (atropisomer, axis not shown; (P)) [Example 587, (P)-1-(3′-chloro-3-methoxy-4′-methyl-4-biphenylyl)-N-3-isoxazolyl-2-oxo-1,2-dihydro-6-quinolinesulfonamide] showed a pIC50 of 7.70.

On to `COc1cc(-c2ccc(Cl)c(C)c2)ccc1-n1c(=O)ccc2cc(S(=O)(=O)Nc3cccnn3)ccc21` (atropisomer, axis not shown; (P)) [Example 371, (P)-1-(4′-chloro-3-methoxy-3′-methyl-4-biphenylyl)-2-oxo-N-3-pyridazinyl-1,2-dihydro-6-quinolinesulfonamide], for which the pIC50 (in-vitro PatchXpress (PX)) is 5.36.

As to `COc1cc(-c2ccc(F)c(Cl)c2)c(F)cc1-n1c(=O)ccc2cc(S(=O)(=O)Nc3ccon3)ccc21` (atropisomer, axis not shown; (M)) [Example 366, (M)-1-(3′-chloro-2,4′-difluoro-5-methoxy-4-biphenylyl)-N-3-isoxazolyl-2-oxo-1,2-dihydro-6-quinolinesulfonamide], for the setting “in-vitro PatchXpress (PX)”, the pIC50 is 5.90.

In the case of `COc1cc(C#CC2(F)CCCC2)c(F)cc1-n1c(=O)ccc2cc(S(=O)(=O)Nc3cccnn3)ccc21` (atropisomer, axis not shown; (P)) [Example 1238, (P)-1-(5-fluoro-4-((1-fluorocyclopentyl)ethynyl)-2-methoxyphenyl)-2-oxo-N-3-pyridazinyl-1,2-dihydro-6-quinolinesulfonamide], the pIC50 was 7.03.

In turn, `COc1cc(-c2cnc(OC)c(Cl)c2)c(F)cc1-n1c(=O)ccc2cc(S(=O)(=O)Nc3ccon3)ccc21` [Example 740, 1-(4-(5-chloro-6-methoxy-3-pyridinyl)-5-fluoro-2-methoxyphenyl)-N-3-isoxazolyl-2-oxo-1,2-dihydro-6-quinolinesulfonamide] showed a pIC50 (in-vitro Nav 1.7 PX data) of 8.05.

As to `COc1cc(-c2ccc(Cl)c(C)c2)c(F)cc1-n1c(=O)ccc2cc(S(=O)(=O)Nc3ncc(F)cn3)ccc21` (atropisomer, axis not shown; (P)) [Example 692, (P)-1-(4′-chloro-2-fluoro-5-methoxy-3′-methyl-4-biphenylyl)-N-(5-fluoro-2-pyrimidinyl)-2-oxo-1,2-dihydro-6-quinolinesulfonamide], the pIC50 (in-vitro Nav 1.7 PX data) was 7.52.

For the compound `COc1ccc(-c2cnn(C)c2)cc1-n1c(=O)ccc2cc(S(=O)(=O)Nc3ccon3)ccc21` [Example 486, N-3-isoxazolyl-1-(2-methoxy-5-(1-methyl-1H-pyrazol-4-yl)phenyl)-2-oxo-1,2-dihydro-6-quinolinesulfonamide], the pIC50 was 4.57.

`COc1cc(-c2cccc(Cl)c2F)ccc1-n1c(=O)ccc2cc(S(=O)(=O)Nc3ccon3)ccc21` [Example 1057, 1-(3′-chloro-2′-fluoro-3-methoxy-4-biphenylyl)-N-3-isoxazolyl-2-oxo-1,2-dihydro-6-quinolinesulfonamide]: under setting [1], the pIC50 is 7.96.

`COc1cc(CC2CCCCC2)c(F)cc1-n1c(=O)ccc2cc(S(=O)(=O)Nc3ccncn3)ccc21` [Example 1115, 1-(4-(cyclohexylmethyl)-5-fluoro-2-methoxyphenyl)-2-oxo-N-4-pyrimidinyl-1,2-dihydro-6-quinolinesulfonamide]: the pIC50 (in-vitro Nav 1.7 PX data) was 7.09.

`COc1cc(-c2cc(F)cc(Cl)c2)c(F)cc1-n1c(=O)ccc2cc(S(=O)(=O)Nc3ccnc(C)n3)ccc21` [Example 934, 1-(3′-chloro-2,5′-difluoro-5-methoxy-4-biphenylyl)-N-(2-methyl-4-pyrimidinyl)-2-oxo-1,2-dihydro-6-quinolinesulfonamide]: for the setting “in-vitro Nav 1.7 PX data”, the pIC50 is 8.22. Against the preceding compound, the pIC50 is 1.13 log units higher.

Take `COc1nc(-c2cccc(C#N)c2)c(Cl)cc1-n1c(=O)ccc2cc(S(=O)(=O)Nc3ccon3)ccc21` [Example 1090, 1-(5-chloro-6-(3-cyanophenyl)-2-methoxy-3-pyridinyl)-N-3-isoxazolyl-2-oxo-1,2-dihydro-6-quinolinesulfonamide]: the pIC50 (in-vitro Nav 1.7 PX data) was 6.70.

As to `COc1cc(-c2cc(C)cc(C#N)c2)c(F)cc1-n1c(=O)ccc2cc(S(=O)(=O)Nc3ccon3)ccc21` (atropisomer, axis not shown; (P)) [Example 526, (P)-1-(3′-cyano-2-fluoro-5-methoxy-5′-methyl-4-biphenylyl)-N-3-isoxazolyl-2-oxo-1,2-dihydro-6-quinolinesulfonamide], the pIC50 (in-vitro PatchXpress (PX)) is 7.51.

In turn, `COc1ccc(C)cc1-c1cc(OC)c(-n2c(=O)ccc3cc(S(=O)(=O)Nc4ccon4)ccc32)cc1F` [Example 714, 1-(2-fluoro-2′,5-dimethoxy-5′-methyl-4-biphenylyl)-N-3-isoxazolyl-2-oxo-1,2-dihydro-6-quinolinesulfonamide] gave a pIC50 (in-vitro Nav 1.7 PX data) of 7.32.

Compound `COc1cccc(-c2ccc(OC)c(-n3c(=O)ccc4cc(S(=O)(=O)Nc5ccon5)ccc43)c2)c1` [Example 847, 1-(3′,4-dimethoxy-3-biphenylyl)-N-3-isoxazolyl-2-oxo-1,2-dihydro-6-quinolinesulfonamide] had a negative-log IC50 (pIC50) (in-vitro Nav 1.7 PX data) of 6.39.

Turning to `COc1cc(-c2ccc(Cl)cc2)ccc1-n1c(=O)ccc2cc(S(=O)(=O)Nc3ccnc(C)n3)ccc21` [Example 768, 1-(4′-chloro-3-methoxy-4-biphenylyl)-N-(2-methyl-4-pyrimidinyl)-2-oxo-1,2-dihydro-6-quinolinesulfonamide], the pIC50 (in-vitro Nav 1.7 PX data) is 7.28. This pIC50 is 0.89 log units higher than that of the compound before.

Consider `COc1cc(-c2cccc(Cl)c2F)c(F)cc1-n1c(=O)ccc2cc(S(=O)(=O)Nc3ccon3)ccc21` [Example 703, 1-(3′-chloro-2,2′-difluoro-5-methoxy-4-biphenylyl)-N-3-isoxazolyl-2-oxo-1,2-dihydro-6-quinolinesulfonamide], for which, for the setting “in-vitro Nav 1.7 PX data”, the pIC50 was 8.30.

In the case of `COc1cc(F)cc(-c2ccc(-n3c(=O)ccc4cc(S(=O)(=O)Nc5ncc(F)cn5)ccc43)c(OC)c2)c1` [Example 998, 1-(3′-fluoro-3,5′-dimethoxy-4-biphenylyl)-N-(5-fluoro-2-pyrimidinyl)-2-oxo-1,2-dihydro-6-quinolinesulfonamide], the pIC50 (in-vitro Nav 1.7 PX data) was 7.05.
